Consider 11 compounds from BindingDB's records for PubMed 6310078 (Pfizer, 1983).

The Ki is a measure of affinity in units of concentration, obtained from inhibition or displacement. Lower therefore signals tighter binding.

Structures can show the parent of a compound that is named as a salt. Bounds are passed on as bounds.

In assay [1] the target is T1, Muscarinic acetylcholine receptor M2 (Rattus norvegicus, UniProt P10980).
T1 sequence (P10980 whole entry): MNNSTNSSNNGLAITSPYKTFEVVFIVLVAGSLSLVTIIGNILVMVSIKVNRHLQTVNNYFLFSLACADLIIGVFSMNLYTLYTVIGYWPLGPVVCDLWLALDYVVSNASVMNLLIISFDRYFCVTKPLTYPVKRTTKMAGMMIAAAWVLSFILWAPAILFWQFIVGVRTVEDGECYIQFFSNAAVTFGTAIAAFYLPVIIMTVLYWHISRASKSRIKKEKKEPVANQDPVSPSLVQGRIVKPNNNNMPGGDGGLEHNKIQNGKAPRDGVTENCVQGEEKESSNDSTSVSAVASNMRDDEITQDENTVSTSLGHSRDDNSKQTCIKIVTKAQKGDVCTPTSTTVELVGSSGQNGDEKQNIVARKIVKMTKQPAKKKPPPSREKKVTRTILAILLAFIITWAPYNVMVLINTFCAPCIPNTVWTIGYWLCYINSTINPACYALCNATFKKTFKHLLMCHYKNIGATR

The target of assay [2] is Sodium-dependent dopamine transporter (Rattus norvegicus, UniProt P23977).
Sodium-dependent dopamine transporter, sequence (P23977 whole entry): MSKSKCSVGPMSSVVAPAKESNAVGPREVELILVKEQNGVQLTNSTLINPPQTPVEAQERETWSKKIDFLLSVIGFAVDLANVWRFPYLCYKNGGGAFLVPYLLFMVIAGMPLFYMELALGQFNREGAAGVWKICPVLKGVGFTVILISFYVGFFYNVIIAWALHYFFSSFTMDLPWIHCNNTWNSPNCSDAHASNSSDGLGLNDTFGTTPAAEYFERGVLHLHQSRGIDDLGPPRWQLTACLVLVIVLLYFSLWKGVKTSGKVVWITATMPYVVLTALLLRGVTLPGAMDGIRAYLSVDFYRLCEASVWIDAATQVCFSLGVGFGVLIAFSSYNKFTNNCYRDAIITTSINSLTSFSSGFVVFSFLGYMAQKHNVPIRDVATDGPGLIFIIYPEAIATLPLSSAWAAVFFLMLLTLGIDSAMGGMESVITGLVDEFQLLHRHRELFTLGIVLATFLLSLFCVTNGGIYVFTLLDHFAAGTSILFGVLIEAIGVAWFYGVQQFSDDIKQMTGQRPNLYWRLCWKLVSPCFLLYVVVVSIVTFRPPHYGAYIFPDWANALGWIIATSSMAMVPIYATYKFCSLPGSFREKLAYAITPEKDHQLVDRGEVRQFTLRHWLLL
Assay [3] has as its target Norepinephrine transporter (Rattus norvegicus, UniProt Q9JIA2).

As to `CN(C)CC/C=C1/c2ccccc2COc2ccccc21`, in assay [1], the Ki was 0.71 µM.
`CNC/C=C(/c1ccc(Br)cc1)c1cccnc1`: the Ki in assay [2] was greater than 10 µM.
In assay [1], `CNCCCN1c2ccccc2CCc2ccccc21` [Desmethylimipramine] yielded a Ki of 3.5 µM.
In the case of `CNCCC=C1c2ccccc2CCc2ccccc21` [NORTRIPTYLINE], the Ki in assay [2] was greater than 10 µM; in assay [3], 0.025 µM.
For the compound `CN[C@@H]1CC[C@@H](c2ccccc2)c2ccccc21`, the values for the Ki in assay [2], in assay [1] and in assay [3] were 0.15 µM, 4.7 µM and 0.018 µM, respectively.
Take `COCCCC/C(=N\OCCN)c1ccc(C(F)(F)F)cc1` [(1E)-5-methoxy-1-[4-(trifluoromethyl)phenyl]pentan-1-one O-(2-aminoethyl)oxime]: the inhibition constant Ki was greater than 10 µM in assay [2] and 1.9 µM in assay [3].
The compound `CN[C@@H]1CC[C@@H](c2ccc(Cl)c(Cl)c2)c2ccccc21` [[4-(3,4-Dichloro-phenyl)-1,2,3,4-tetrahydro-naphthalen-1-yl]-methyl-amine] showed a Ki in assay [1] greater than 10 µM.
Consider `N[C@H]1CC[C@@H](c2ccc(Cl)c(Cl)c2)c2ccccc21`, for which the Ki in assay [2] stood at 3.8 µM; in assay [3], 4.6 µM.
Turning to `CN(C)CCC=C1c2ccccc2CCc2ccccc21`, the Ki in assay [2] was greater than 10 µM; in assay [1] it was 0.32 µM; in assay [3], 0.13 µM.
With `CN(C)CCCN1c2ccccc2CCc2ccc(Cl)cc21` [CLOMIPRAMINE HYDROCHLORIDE], the affinity in assay [2] corresponds to a Ki of 8.1 µM. That is a single-digit micromolar value.
As to `CN(C)C/C=C(/c1ccc(Br)cc1)c1cccnc1` [cis-[3-(4-Bromo-phenyl)-3-pyridin-3-yl-allyl]-dimethyl-amine;HCl], in assay [2], the Ki is greater than 10 µM.
